# Source: patent US11535643B2, “Macrolides with modified desosamine sugars and uses thereof” (President and Fellows of Harvard College, priority 2015, dated 2022)
# Like-named read-outs stand apart in the source and are kept apart here.
# Assays:
# Assay type in all cases: cell-based
# E. coli = assay: Broth dilution MIC determination (CLSI) against E. coli strains; conditions: for MIC: Escherichia coli
# Outline: (§1)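 Macrolide MICs come from CLSI-standard broth dilution testing of distinct strains, several multidrug-resistant, selected with attention to macrolide resistance mechanisms; two reference macrolides, azithromycin and solithromycin, were included.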
# H. influenzae = assay: Broth dilution MIC determination (CLSI) against H. influenzae strains; conditions: for MIC: Haemophilus influenzae
# Outline: as §1
# A. baumannii = assay: Broth dilution MIC determination (CLSI) against A. baumannii strains; conditions: for MIC: Acinetobacter baumannii
# Outline: as §1
# S. pneumoniae = assay: Broth dilution MIC determination (CLSI) against S. pneumoniae strains; conditions: for MIC: Streptococcus pneumoniae
# Outline: as §1
# S. pyogenes = assay: Broth dilution MIC determination (CLSI) against S. pyogenes strains; conditions: for MIC: Streptococcus pyogenes
# Outline: as §1
# E. faecalis = assay: Broth dilution MIC determination (CLSI) against E. faecalis strains; conditions: for MIC: Enterococcus faecalis
# Outline: as §1
# S. aureus = assay: Broth dilution MIC determination (CLSI) against S. aureus strains; conditions: for MIC: Staphylococcus aureus
# Outline: as §1
# K. pneumoniae = assay: Broth dilution MIC determination (CLSI) against K. pneumoniae strains; conditions: for MIC: Klebsiella pneumoniae
# Outline: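 Azithromycin and solithromycin served as controls; MICs were obtained by standard CLSI broth dilution on a strain panel including multidrug-resistant and macrolide-resistant isolates.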
# P. aeruginosa = assay: Broth dilution MIC determination (CLSI) against P. aeruginosa strains; conditions: for MIC: Pseudomonas aeruginosa
# Outline: as §1
structure (smiles),measurement,setting,value
CCC1OC(=O)C(C)C(=O)C(C)C(OC2OC(Cn3cc(-c4cccc(N)n4)nn3)CC(N(C)C)C2O)C(C)(OC)CC(C)CNC(C)C2N(CCCCn3cc(-c4cccc(N)c4)nn3)C(=O)OC12C (stereo not shown) [FSM-22372],MIC E. coli ATCC25922,E. coli,>32 µg/mL
same,MIC E. coli CTX-M-14,E. coli,>32 µg/mL
same,MIC E. coli NDM-1,E. coli,>32 µg/mL
same,MIC E. coli TEM-1,E. coli,>32 µg/mL
same,MIC H. influenzae ATCC49247,H. influenzae,16 µg/mL
same,"MIC H. influenzae erythro > 4, azithro 1","H. influenzae; erythro > 4, azithro 1",16 µg/mL
same,MIC A. baumannii ATCC19606,A. baumannii,>32 µg/mL
same,MIC A. baumannii IMP-4,A. baumannii; IMP-4,>32 µg/mL
same,MIC A. baumannii chromosomal class C,A. baumannii; chromosomal class C,>32 µg/mL
same,MIC A. baumannii imipenem-resistant,A. baumannii; imipenem-resistant,>32 µg/mL
same,MIC S. pneumoniae ATCC49619,S. pneumoniae,<0.03125 µg/mL
same,MIC S. pneumoniae erm B + mef A genotype,S. pneumoniae; erm B + mef A genotype,>32 µg/mL
same,"MIC S. pneumoniae erm B + tet(M, O) genotype","S. pneumoniae; erm B + tet(M, O) genotype",<0.03125 µg/mL
same,MIC S. pyogenes ATCC19615,S. pyogenes,<0.03125 µg/mL
same,MIC S. pyogenes macrolide-resistant,S. pyogenes; macrolide-resistant,8 µg/mL
same,MIC E. faecalis ATCC29212,E. faecalis,16 µg/mL
same,MIC E. faecalis Vancomycin-resistant,E. faecalis; Vancomycin-resistant,>32 µg/mL
same,MIC S. aureus ATCC29213,S. aureus,>32 µg/mL
same,MIC S. aureus MRSA: USA100,S. aureus,>32 µg/mL
same,MIC S. aureus MRSA: USA300,S. aureus,>32 µg/mL
same,"MIC S. aureus USA600, GISA",S. aureus,>32 µg/mL
same,MIC S. aureus erm A genotype,S. aureus,>32 µg/mL
same,MIC K. pneumoniae ATCC10031,K. pneumoniae,>32 µg/mL
same,MIC K. pneumoniae KPC-2,K. pneumoniae; KPC-2,>32 µg/mL
same,MIC K. pneumoniae SHV-12,K. pneumoniae; SHV-12,>32 µg/mL
same,MIC K. pneumoniae TEM-10,K. pneumoniae; TEM-10,>32 µg/mL
same,MIC P. aeruginosa ATCC27853,P. aeruginosa; ATCC27853,>32 µg/mL
same,MIC P. aeruginosa HPA101-1477,P. aeruginosa,>32 µg/mL
CCC1OC(=O)C(C)C(=O)C(C)C(OC2OC(Cn3cc(-c4cnc(N)s4)nn3)CC(N(C)C)C2O)C(C)(OC)CC(C)CNC(C)C2N(CCCCn3cc(-c4cccc(N)c4)nn3)C(=O)OC12C (stereo not shown) [FSM-22373],MIC E. coli ATCC25922,E. coli,>32 µg/mL
same,MIC E. coli CTX-M-14,E. coli,>32 µg/mL
same,MIC E. coli NDM-1,E. coli,>32 µg/mL
same,MIC E. coli TEM-1,E. coli,>32 µg/mL
same,MIC H. influenzae ATCC49247,H. influenzae,>32 µg/mL
same,"MIC H. influenzae erythro > 4, azithro 1","H. influenzae; erythro > 4, azithro 1",16 µg/mL
same,MIC A. baumannii ATCC19606,A. baumannii,>32 µg/mL
same,MIC A. baumannii IMP-4,A. baumannii; IMP-4,>32 µg/mL
same,MIC A. baumannii chromosomal class C,A. baumannii; chromosomal class C,>32 µg/mL
same,MIC A. baumannii imipenem-resistant,A. baumannii; imipenem-resistant,>32 µg/mL
same,MIC S. pneumoniae ATCC49619,S. pneumoniae,<0.03125 µg/mL
same,MIC S. pneumoniae erm B + mef A genotype,S. pneumoniae; erm B + mef A genotype,32 µg/mL
same,"MIC S. pneumoniae erm B + tet(M, O) genotype","S. pneumoniae; erm B + tet(M, O) genotype",<0.03125 µg/mL
same,MIC S. pyogenes ATCC19615,S. pyogenes,8 µg/mL
same,MIC S. pyogenes macrolide-resistant,S. pyogenes; macrolide-resistant,>32 µg/mL
same,MIC E. faecalis ATCC29212,E. faecalis,32 µg/mL
same,MIC E. faecalis Vancomycin-resistant,E. faecalis; Vancomycin-resistant,>32 µg/mL
same,MIC S. aureus ATCC29213,S. aureus,>32 µg/mL
same,MIC S. aureus MRSA: USA100,S. aureus,>32 µg/mL
same,MIC S. aureus MRSA: USA300,S. aureus,>32 µg/mL
same,"MIC S. aureus USA600, GISA",S. aureus,>32 µg/mL
same,MIC S. aureus erm A genotype,S. aureus,>32 µg/mL
same,MIC K. pneumoniae ATCC10031,K. pneumoniae,>32 µg/mL
same,MIC K. pneumoniae KPC-2,K. pneumoniae; KPC-2,>32 µg/mL
same,MIC K. pneumoniae SHV-12,K. pneumoniae; SHV-12,>32 µg/mL
same,MIC K. pneumoniae TEM-10,K. pneumoniae; TEM-10,32 µg/mL
same,MIC P. aeruginosa ATCC27853,P. aeruginosa; ATCC27853,>32 µg/mL
same,MIC P. aeruginosa HPA101-1477,P. aeruginosa,>32 µg/mL
"CC[C@H]1OC(=O)[C@@](C)(F)C(=O)[C@H](C)[C@@H](O[C@@H]2O[C@H](C)C[C@H](N(C)C)[C@H]2O)[C@](C)(OC)C[C@@H](C)C(=O)[C@H](C)[C@H]2N(CCCCn3cc(-c4cccc(N)c4)nn3)C(=O)O[C@]12C [Solithromycin, solithromycin, reference compound]",MIC,"E. coli; ATCC25922, ATCC25922, read-out: MIC E. coli ATCC25922",32 µg/mL
same,MIC,"E. coli; read-out: MIC E. coli CTX-M-14, CTX-M-14",> 32 µg/mL
same,MIC,"E. coli; read-out: MIC E. coli NDM-1, NDM-1",> 32 µg/mL
same,MIC,"E. coli; read-out: MIC E. coli TEM-1, TEM-1",32 µg/mL
same,MIC,"H. influenzae; ATCC49247, ATCC49247, read-out: MIC H. influenzae ATCC49247",4 µg/mL
same,MIC,"H. influenzae; erythro > 4, azithro 1, read-out: MIC H. influenzae erythro > 4, azithro 1",2 µg/mL
same,MIC,"A. baumannii; ATCC19606, ATCC19606, read-out: MIC A. baumannii ATCC19606",8 µg/mL
same,MIC,"A. baumannii; IMP-4, read-out: MIC A. baumannii IMP-4",> 32 µg/mL
same,MIC,"A. baumannii; chromosomal class C, read-out: MIC A. baumannii chromosomal class C",8 µg/mL
same,MIC,"A. baumannii; imipenem-resistant, read-out: MIC A. baumannii imipenem-resistant",4 µg/mL
same,MIC,"S. pneumoniae; ATCC49619, ATCC49619, read-out: MIC S. pneumoniae ATCC49619",< 0.0312 µg/mL
same,MIC,"S. pneumoniae; erm B + mef A genotype, read-out: MIC S. pneumoniae erm B + mef A genotype",0.25 µg/mL
same,MIC,"S. pneumoniae; erm B + tet(M, O) genotype, read-out: MIC S. pneumoniae erm B + tet(M, O) genotype",< 0.0312 µg/mL
same,MIC,"S. pneumoniae; read-out: MIC S. pneumoniae mef A genotype, mef A genotype",0.125 µg/mL
same,MIC,"S. pyogenes; ATCC19615, ATCC19615, read-out: MIC S. pyogenes ATCC19615",< 0.0312 µg/mL
same,MIC,"S. pyogenes; macrolide-resistant, read-out: MIC S. pyogenes macrolide-resistant",0.0625 µg/mL
same,MIC,"E. faecalis; ATCC29212, ATCC29212, read-out: MIC E. faecalis ATCC29212",< 0.0312 µg/mL
same,MIC,"E. faecalis; Vancomycin-resistant, read-out: MIC E. faecalis Vancomycin-resistant",32 µg/mL
same,MIC,"S. aureus; ATCC29213, ATCC29213, read-out: MIC S. aureus ATCC29213",0.125 µg/mL
same,MIC,"S. aureus; MRSA / USA100, MRSA: USA100, read-out: MIC S. aureus MRSA: USA100",> 32 µg/mL
same,MIC,"S. aureus; MRSA / USA300, MRSA: USA300, read-out: MIC S. aureus MRSA: USA300",1 µg/mL
same,MIC,"S. aureus; USA600, USA600, GISA, read-out: MIC S. aureus USA600, GISA",> 32 µg/mL
same,MIC,S. aureus; read-out: MIC S. aureus erm A genotype,> 32 µg/mL
same,MIC,"K. pneumoniae; ATCC10031, ATCC10031, read-out: MIC K. pneumoniae ATCC10031",8 µg/mL
same,MIC,"K. pneumoniae; KPC-2, read-out: MIC K. pneumoniae KPC-2",> 32 µg/mL
same,MIC,"K. pneumoniae; SHV-12, read-out: MIC K. pneumoniae SHV-12",> 32 µg/mL
same,MIC,"K. pneumoniae; TEM-10, read-out: MIC K. pneumoniae TEM-10",> 32 µg/mL
same,MIC,"P. aeruginosa; ATCC27853, read-out: MIC P. aeruginosa ATCC27853",> 32 µg/mL
same,MIC,P. aeruginosa; read-out: MIC P. aeruginosa HPA101-1477,> 32 µg/mL
